Test results: US12139520B2 (priority 2020, dated 2024)
Bridge positions count the residues as written; N and C are the ends. Square brackets hold non-standard residues; d marks the D form. Peptide text beside a SMILES is read from it. Hyp = O=C(O)[C@@H]1C[C@@H](O)CN1; Cit = NC(=O)NCCC[C@H](N)C(=O)O

How the values were obtained:
[1] = Physical stability of peptide analogues (Thioflavin T fibrillation); assay type: physicochemical; settings: maximum ThT signal normalized between hAMY maximum and buffer background; 40° C., shaking, four days; pH 7 per table title
Procedure, shortened: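 ThT fluorescence (450 nm excitation, 480 nm emission; 4 μM dye) was read every 10 min over four days at 40° C under 700 rpm shaking stress, after 1 h in pH 4 acetate or pH 7 phosphate (50 mM). Peak smoothed signal expressed as percent, scaled between buffer background and hAMY maximum.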

[2] = biological target: hAM1 receptor (Homo sapiens, UniProt O60895+Q16602); test: cAMP assay for in vitro receptor activation, hAM1-R; assay type: cell-based; settings: cAMP assay, hAM1 receptor; read-out: hAM1R EC50
hAM1 receptor, sequence (Q16602 23-461): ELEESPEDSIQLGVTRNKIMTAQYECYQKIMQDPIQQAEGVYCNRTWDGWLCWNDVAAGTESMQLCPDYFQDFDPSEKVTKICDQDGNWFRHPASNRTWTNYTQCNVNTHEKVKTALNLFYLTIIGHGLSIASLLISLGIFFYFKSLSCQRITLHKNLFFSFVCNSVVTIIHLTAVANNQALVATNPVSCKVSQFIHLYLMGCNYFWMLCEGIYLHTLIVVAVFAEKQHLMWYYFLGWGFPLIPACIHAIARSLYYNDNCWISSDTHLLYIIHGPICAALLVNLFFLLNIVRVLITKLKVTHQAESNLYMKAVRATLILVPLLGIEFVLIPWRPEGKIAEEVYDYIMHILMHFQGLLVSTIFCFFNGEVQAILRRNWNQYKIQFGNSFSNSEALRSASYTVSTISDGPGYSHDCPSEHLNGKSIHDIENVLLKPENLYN
hAM1 receptor, sequence (O60895 43-175 partner): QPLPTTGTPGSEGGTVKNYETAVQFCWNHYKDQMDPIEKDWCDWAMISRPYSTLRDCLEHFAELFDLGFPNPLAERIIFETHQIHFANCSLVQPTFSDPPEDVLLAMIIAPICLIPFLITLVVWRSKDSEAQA
Procedure, shortened: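 Read-out is intracellular cAMP as a measure of receptor activation. Cells stably overexpressing hAM1 were subcloned to a monoclonal line, then thawed and seeded at 8000 cells/well in DPBS with 0.05% casein and the phosphodiesterase inhibitor IBMX at 0.5 mM.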

Max ThT signal (%) [1] [%] | EC50 [2] [µM] | Structure (SMILES)
4.400 | > 5 | CC[C@H](C)[C@H](NC(=O)[C@H](CCC(N)=O)NC(=O)[C@H](Cc1c[nH]cn1)NC(=O)[C@H](C)NC(=O)[C@H](CC(C)C)NC(=O)[C@H](CCCNC(=N)N)NC(=O)[C@H](CCC(N)=O)NC(=O)[C@@H](NC(=O)[C@@H](NC(=O)[C@@H]1CSSC[C@H](NC(=O)CN)C(=O)N[C@@H](CCCNC(=N)N)C(=O)N[C@@H](CCSC)C(=O)NCC(=O)N[C@@H]([C@@H](C)O)C(=O)N1)[C@@H](C)O)C(C)C)C(=O)N[C@@H](Cc1ccc(O)cc1)C(=O)N[C@@H](CCC(N)=O)C(=O)N[C@@H](Cc1ccccc1)C(=O)N[C@H](C(=O)N[C@@H](CC(=O)O)C(=O)N[C@@H](CCCCN)C(=O)N[C@@H](Cc1ccccc1)C(=O)N[C@@H](CCCCN)C(=O)N[C@@H](CC(=O)O)C(=O)N[C@@H](CC(N)=O)C(=O)N[C@H](C(=O)N[C@@H](C)C(=O)N1CCC[C@H]1C(=O)N[C@@H](CCCNC(=N)N)C(=O)N[C@@H](CO)C(=O)N[C@@H](CCCCN)C(=O)N[C@H](C(=O)N[C@@H](CO)C(=O)N1CCC[C@H]1C(=O)N[C@@H](CCC(N)=O)C(=O)N[C@H](C(=O)N1C[C@H](O)C[C@H]1C(N)=O)[C@@H](C)O)[C@@H](C)CC)C(C)C)[C@@H](C)O [compound 173] (H-GCRMGTCTVQRLAHQIYQFTDKFKDNVAPRSKISPQT[Hyp]-NH2; disulfide 2-7; N-terminus assumed)
0.600 | > 5 | CC[C@H](C)[C@H](NC(=O)[C@H](CCC(N)=O)NC(=O)[C@H](Cc1c[nH]cn1)NC(=O)[C@H](C)NC(=O)[C@H](CC(C)C)NC(=O)[C@H](CCCNC(=N)N)NC(=O)[C@H](CCC(N)=O)NC(=O)[C@@H](NC(=O)[C@@H](NC(=O)[C@@H]1CSSC[C@H](NC(=O)CN)C(=O)N[C@@H](CCCNC(=N)N)C(=O)N[C@@H]([C@@H](C)O)C(=O)NCC(=O)N[C@@H]([C@@H](C)O)C(=O)N1)[C@@H](C)O)C(C)C)C(=O)N[C@@H](Cc1ccc(O)cc1)C(=O)N[C@@H](CCC(N)=O)C(=O)N[C@@H](Cc1ccccc1)C(=O)N[C@H](C(=O)N[C@@H](CC(=O)O)C(=O)N[C@@H](CCCCN)C(=O)N[C@@H](Cc1ccccc1)C(=O)N[C@@H](CCCCN)C(=O)N[C@@H](CC(=O)O)C(=O)N[C@@H](CC(N)=O)C(=O)N[C@H](C(=O)N[C@@H](C)C(=O)N1CCC[C@H]1C(=O)N[C@@H](CCCNC(=N)N)C(=O)N[C@@H](CO)C(=O)N[C@@H](CCCCN)C(=O)N[C@H](C(=O)N[C@@H](CO)C(=O)N1CCC[C@H]1C(=O)N[C@@H](CCC(N)=O)C(=O)N[C@H](C(=O)N[C@@H](CCSC)C(N)=O)[C@@H](C)O)[C@@H](C)CC)C(C)C)[C@@H](C)O [compound 215] (H-GCRTGTCTVQRLAHQIYQFTDKFKDNVAPRSKISPQTM-NH2; disulfide 2-7)

Continued, compound first:

Structure (SMILES) | Max ThT signal (%) [1] [%] | EC50 [2] [µM]
CC[C@H](C)[C@H](NC(=O)[C@H](CCC(N)=O)NC(=O)[C@H](Cc1c[nH]cn1)NC(=O)[C@H](C)NC(=O)[C@H](CC(C)C)NC(=O)[C@H](Cc1c[nH]c2ccccc12)NC(=O)[C@H](CCC(N)=O)NC(=O)[C@@H](NC(=O)[C@@H](NC(=O)[C@@H]1CSSC[C@H](NC(=O)CN)C(=O)N[C@@H](CCCNC(=N)N)C(=O)N[C@@H]([C@@H](C)O)C(=O)NCC(=O)N[C@@H]([C@@H](C)O)C(=O)N1)[C@@H](C)O)C(C)C)C(=O)N[C@@H](Cc1ccc(O)cc1)C(=O)N[C@@H](CCC(N)=O)C(=O)N[C@@H](Cc1ccccc1)C(=O)N[C@H](C(=O)N[C@@H](CC(=O)O)C(=O)N[C@@H](CCCCN)C(=O)N[C@@H](CC(=O)O)C(=O)N[C@@H](CCCCN)C(=O)N[C@@H](CC(=O)O)C(=O)N[C@@H](CC(N)=O)C(=O)N[C@H](C(=O)N[C@@H](C)C(=O)N1CCC[C@H]1C(=O)N[C@@H](CCCNC(=N)N)C(=O)N[C@H](C(=O)N[C@@H](CCCCN)C(=O)N[C@H](C(=O)NCC(=O)N1CCC[C@H]1C(=O)N[C@@H](CCC(N)=O)C(=O)NCC(=O)N1C[C@H](O)C[C@H]1C(N)=O)C(C)C)[C@@H](C)O)C(C)C)[C@@H](C)O [compound 349] (H-GCRTGTCTVQWLAHQIYQFTDKDKDNVAPRTKVGPQG[Hyp]-NH2; disulfide 2-7; N-terminus assumed) | 15.250 | > 5
CC[C@H](C)[C@H](NC(=O)[C@H](CCCCN)NC(=O)[C@H](CO)NC(=O)[C@H](CCCNC(=N)N)NC(=O)[C@@H]1CCCN1C(=O)[C@H](C)NC(=O)[C@@H](NC(=O)[C@H](CC(N)=O)NC(=O)[C@H](CC(=O)O)NC(=O)[C@H](CCCCN)NC(=O)[C@H](CC(=O)O)NC(=O)[C@H](CCCCN)NC(=O)[C@H](CC(=O)O)NC(=O)[C@@H](NC(=O)[C@H](Cc1ccccc1)NC(=O)[C@H](CCC(N)=O)NC(=O)[C@H](Cc1ccc(O)cc1)NC(=O)[C@@H](NC(=O)[C@H](CCC(N)=O)NC(=O)[C@H](Cc1c[nH]cn1)NC(=O)[C@H](C)NC(=O)[C@H](CC(C)C)NC(=O)[C@H](CCCNC(N)=O)NC(=O)[C@H](CCC(N)=O)NC(=O)[C@@H](NC(=O)[C@@H](NC(=O)[C@@H]1CSSC[C@H](NC(=O)CN)C(=O)N[C@@H](CCCNC(=N)N)C(=O)N[C@@H]([C@@H](C)O)C(=O)NCC(=O)N[C@@H]([C@@H](C)O)C(=O)N1)[C@@H](C)O)C(C)C)[C@@H](C)CC)[C@@H](C)O)C(C)C)C(=O)NCC(=O)N1CCC[C@H]1C(=O)N[C@@H](CC(N)=O)C(=O)NCC(=O)N1C[C@H](O)C[C@H]1C(N)=O [compound 299] (H-GCRTGTCTVQ[Cit]LAHQIYQFTDKDKDNVAPRSKIGPNG[Hyp]-NH2; disulfide 2-7; N-terminus assumed) | 26.550 | > 5
CC[C@H](C)[C@H](NC(=O)[C@H](CCC(N)=O)NC(=O)[C@H](Cc1c[nH]cn1)NC(=O)[C@H](C)NC(=O)[C@H](CC(C)C)NC(=O)[C@H](CCCNC(=N)N)NC(=O)[C@H](CCC(N)=O)NC(=O)[C@@H](NC(=O)[C@@H](NC(=O)[C@@H]1CSSC[C@H](NC(=O)CN)C(=O)N[C@@H](CCCNC(=N)N)C(=O)N[C@@H]([C@@H](C)O)C(=O)NCC(=O)N[C@@H]([C@@H](C)O)C(=O)N1)[C@@H](C)O)C(C)C)C(=O)N[C@@H](Cc1ccc(O)cc1)C(=O)N[C@@H](CCC(N)=O)C(=O)N[C@@H](Cc1ccccc1)C(=O)N[C@H](C(=O)N[C@@H](CC(N)=O)C(=O)N[C@@H](CCCCN)C(=O)N[C@@H](CC(=O)O)C(=O)N[C@@H](CCCCN)C(=O)N[C@@H](CC(=O)O)C(=O)N[C@@H](CC(N)=O)C(=O)N[C@H](C(=O)N[C@@H](C)C(=O)N1CCC[C@H]1C(=O)N[C@@H](CCCNC(=N)N)C(=O)N[C@@H](CO)C(=O)N[C@@H](CCCCN)C(=O)N[C@H](C(=O)N[C@@H](CO)C(=O)N1CCC[C@H]1C(=O)N[C@@H](CCC(N)=O)C(=O)N[C@H](C(=O)N[C@@H](CCCNC(=N)N)C(N)=O)[C@@H](C)O)[C@@H](C)CC)C(C)C)[C@@H](C)O [compound 242] (H-GCRTGTCTVQRLAHQIYQFTNKDKDNVAPRSKISPQTR-NH2; disulfide 2-7; N-terminus assumed) | 0.800 | > 5
